{
  "source": "patent US5243035A",
  "about": "“Sialic acid-containing glycolipid derivatives” (Drug Delivery System Institute, Ltd., priority 1990, dated 1993)",
  "origin": "cited, not measured here",
  "details": "incorporated into liposome membrane; literature report",
  "data": [
    {"substance": "ganglioside GM1", "values": [
      {"measurement": "resistance of liposome to capture by the reticuloendothelial system", "result": "increased resistance to capture by the reticuloendothelial system"}
    ]}
  ]
}
